Test results reported in patent EP1488698A1, “Compositions for descreasing intracellular inositol trisphosphate concentration and uses thereof” (priority 1995, dated 1997).
Marks after values point to notes of the source that are not given here.

Legend:
PC12 cells = assay: Phosphoinositide hydrolysis assay (InsP3 production) in PC12 cells; format: cell-based, rat; conditions: for sensitivity of PC12 cells to bradykinin: even at relatively moderate levels
Excerpt: PC12 cells, from a rat adrenal pheochromocytoma cell line, were used as a model of neurons from the peripheral nervous system. These cells were obtained from a common laboratory cell culture stock and grown in plastic culture flasks in Dulbecco's modified Eagle's medium (DMEM) supplemented with 5% heat-inactivated horse serum and 10% heat-inactivated fetal calf serum (PC12 cells are also available from the American Type Culture Collection under the Accession number CRL 1721). The cells were grown at 37°C in 5% CO2 in air until a confluent monolayer formed. The cells were dispersed into 24-well plastic tissue culture plates at a density of 10^5 cells per well and used for the phosphoinositide hydrolysis assays (as described in Example 2).
(§1) Receptor-stimulated and basal unstimulated hydrolysis of phosphoinositides was measured by the following procedure. In order to label the cellular phosphoinositides metabolically, the primary cultures of chick cortical neurons (described in Example 1) were incubated overnight with 0.5 ml Dulbecco's modified Eagle's medium containing 1 µCi [^3H]myo-inositol per well. The cells were then washed twice with 1 ml Dulbecco's phosphate-buffered saline (PBS) and 0.5 ml of PBS containing 4.5 g/L glucose was added. Sphingosine, psychosine, lysosulphatide, or lysosphingomyelin, prepared as the hydrochloride salt dissolved in water, were then added to produce the desired extracellular concentration in specific wells, and the 24-well plates were swirled gently on a rotary shaker for 1 hour at 23°C. The cells were then washed twice with 1 ml PBS, and pre-incubated for 15 minutes at 37°C with 0.5 ml PBS containing 10 mM LiCl and the compound to be tested was added. After 30 minutes, the experiment was terminated by adding 1 ml of ice-cold methanol to each well and transferring the material in each well to polypropylene tubes that contained 0.4 ml water and 1 ml chloroform. The tubes were vortexed thoroughly, then centrifuged at 500 x g for 5 minutes to separate the aqueous and chloroform phases. For each sample, a 1.5-ml aliquot of the upper (aqueous) phase was applied to a small column containing BioRad AG1X8 resin (formate form). Free [^3H]inositol and [^3H]glycerophosphoinositol were washed through the column with 5 ml of a solution containing 5 mM sodium borate and 60 mM sodium formate. The total phosphorylated [^3H] inositol fraction was eluted from the column for radiometric scintillation spectrometry analysis with 3 ml 1.0 M ammonium formate/0.1 M formic acid.
(§2) In addition, a 0.5 ml aliquot of the lower (chloroform) phase of each sample was analyzed radiometrically by scintillation spectrometry in order to determine the quantity of lipid-bound [^3H]myo-inositol. Estimation of phosphoinositide hydrolysis by phospholipase C is based upon the quantity of [^3H]inositol phosphates produced, and is expressed as the percentage of the latter relative to total free and componential [^3H]inositol (dpm ammonium formate + dpm chloroform fractions).

[1] = test system: primary chick cortical neurons; assay: Phosphoinositide hydrolysis assay (InsP3 production) in cultured primary cortical neurons; format: cell-based; conditions: for Ins-P-n with Lysosphinogolipid Modulator, agonist Aspartate: 100 μM Aspartate, 20 min, neurons preincubated with 20 μM modulator (or 20 μM + 20 μM Sphingosine), washed, normalized to control = 1.00; for enhancement of InsP3 level caused by sphingosine or by metabotropic glutamate receptor agonists / InsP3 signalling: cortical neurons; for InsP3 signalling: as shown in Table 1
Description: The neurons were seeded in 24-well plastic tissue culture plates that had been coated with L-polylysine.
as §1, with “In order to label the cellular phosphoinositides metabolically, the primary cultures of chick cortical neurons (described in Example 1) were incubated overnight with 0.5 ml Dulbecco's modified Eagle's medium containing 1 µCi [^3H]myo-inositol per well.” left out, “and the 24-well plates were swirled gently on a rotary shaker for 1 hour at 23°C.” left out, “After 30 minutes, the experiment was terminated by adding 1 ml of ice-cold methanol to each well and transferring the material in each well to polypropylene tubes that contained 0.4 ml water and 1 ml chloroform.” left out
as §2

[2] = test system: phospholipase C isoforms beta, delta, and gamma; assay: Free phospholipase C activity in solution (kinetics); format: biochemical; conditions: for KM / diminution in Vmax / increase in calcium ion concentration required for optimal activity: 10 µM lysocerebroside or 5 µM lysosphingomyelin
Description: The effects of sphingosine, lysocerebroside, and lysosphingomyelin on the kinetics of pure, immunologically isolated phospholipase C isoforms beta, delta, and gamma (which are commercially available) was examined. For each isoform, 10 µM sphingosine was added to a reaction medium consisting of 1 µg phospholipase C isoform/ml, Tris-malate buffer (50 mM, pH 7.0) containing 100 µM phosphatidyl inositol bis-phosphate tri-ammonium salt, 0.01 µCi tritium labeled phosphatidyl inositol bis-phosphate, 100 mM NaCl, 10 mM CaCl2, and 5 mM 2-merceptoethanol.

[3] = Lysosphingolipid loading of isolated neuronal plasma membrane (fluorescence tagging); format: in vitro ADME, chick; conditions: Plasma Membrane Suspension, 10 μmolar exposure
Excerpt: Total lipids were removed from the neuron samples by repeated extraction with chloroform:methanol (2:1, vol:vol). The lysosphingolipids were separated from total neuronal lipid in 90 ± 5 % recovery yield (n = 10) by the stepped chromatographic procedure of Van Veldhoven et al. (Anal. Biochem. 183:177-189, 1989). The recovered lysosphingolipids were stably tagged with NBDZF by the rapid procedure of Nozowa et al. (supra). The fluorescence tagged neuronal lysosphingolipids were separated in parallel with reference standards NBDZF-Sph, NBDZF-Psy, and NBDZF-Lsm on high performance silica gel thin layer chromatography plates with acetonitrile:H2O (10:0.5, vol:vol). The highly fluorescent, well separated bands were scraped from the plate. The fluorescence tagged lysosphingolipids are eluted from the scraped silica gel with methanol:1 N HCl (1:0.02, vol:vol). The fluorescence tagged lysosphingolipid eluates were quantitated against reference standards by fluorescence measurement in a Perkin-Elmer LS-5 Fluorescence Spectrometer.
Physiologically active phospholipase C is present on the endofacial portion of the plasma membrane. A procedure for examining its activity in an intact membrane is provided. The neuronal membrane preparation described below is useful for determining lysosphingolipid effects on the phosphatidylinositol kinase and phospholipase C activities in intact membranes. One hundred Petri dishes of cultured cortical neurons were incubated overnight with 50 µCi [^3H]myo-inositol per mL of culture medium. Ten Petri dish-samples of cultured neurons (1 X 10^8 neurons; 23 ± 2 mg protein, n = 15) were pooled to produce 2.4 ± 0.2 mg plasma membrane by the following procedure. The collected neurons were homogenized in 5 mL 0.32 M sucrose and centrifuged at 1000 X g for 15 minutes. The supernatant was layered on top of 2 ml 1.2 M sucrose and centrifuged at 300,000 X g for 20 minutes. The sedimented pellet was resuspended by sonication for 10 seconds in 50 mM Tris buffer (pH 7.4), containing 0.3 µM CaCl2, 1 mM MgCl2, and 0.01% ascorbic acid.
The suspended plasma membrane preparation was apportioned into 250 µl samples, each providing approximately 100 µg membrane protein. Sphingosine, psychosine, and lysosphingomyelin were added to each plasma membrane sample. […] Samples were analyzed for lysosphingolipid loading (i.e., membrane lysosphingolipid content following exposure to exogenous sphingolipid) by fluorescence tagging. Table 2 provides the results of exposure of plasma membrane samples to 10 µM lysosphingolipids. Values are reported in pmoles lysosphingolipid/mg plasma membrane protein. Values obtained for isolated plasma membrane and intact neurons are compared.

SMILES	InsP3 production (PC12 cells; PC12 cells, Fig 3)	sensitivity of PC12 cells to bradykinin (PC12 cells; Fig 3)	Ins-P-n with Lysosphinogolipid Modulator, agonist Aspartate [1]	enhancement of InsP3 level caused by sphingosine or by metabotropic glutamate receptor agonists [1]	InsP3 signalling [1]	KM [2]	diminution in Vmax [2]	increase in calcium ion concentration required for optimal activity [2] [fold]	membrane lysosphingolipid content, 0 hours of incubation [3]	membrane lysosphingolipid content, 0.5 hours of incubation [3]	membrane lysosphingolipid content, 1.0 hours of incubation [3]	membrane lysosphingolipid content, 2.0 hours of incubation [3]	membrane lysosphingolipid content, 3.0 hours of incubation [3]	IC50 (PC12 cells; Rattus norvegicus, PC-12, 0.5 h, read-out: concentration sufficient to reduce a metabotropic response to bradykinin to half maximum) [µM]	basal, unstimulated level of InsP3 production (PC12 cells; PC12 cells, Fig 3)	basal, unstimulated InsP3 level in cortical neurons [1]	KM for substrate phosphatidylinositol bis-phosphate ([2]; 10 µM sphingosine)	calcium ion concentration required for optimal activity ([2]; 10 µM sphingosine)	increase in Vmax ([2]; 10 µM sphingosine, each isoform)
CCCCCCCCCCCCC/C=C/[C@@H](O)[C@@H](N)COP(=O)([O-])OCC[N+](C)(C)C [lysosphingomyelin, sphingosyl phosphorylcholine]	strongly inhibit	can entirely block	1.00±0.06^e	blocked this enhancement	potently modulated InsP3 signalling	no change	60% ± 10%	5	5±1 pmoles lysosphingolipid/mg plasma membrane protein	65±15 pmoles lysosphingolipid/mg plasma membrane protein	110±15 pmoles lysosphingolipid/mg plasma membrane protein	120±10 pmoles lysosphingolipid/mg plasma membrane protein	145±25 pmoles lysosphingolipid/mg plasma membrane protein						
CCCCCCCCCCCCC/C=C/[C@@H](O)[C@@H](N)CO[C@@H]1O[C@H](CO)[C@H](O)[C@H](O)[C@H]1O [psychosine]	strongly inhibit	can entirely block	1.00±0.06^e	blocked this enhancement	potently modulated InsP3 signalling	no change	60% ± 10%	5	45±5 pmoles lysosphingolipid/mg plasma membrane protein	75±20 pmoles lysosphingolipid/mg plasma membrane protein	120±15 pmoles lysosphingolipid/mg plasma membrane protein	180±15 pmoles lysosphingolipid/mg plasma membrane protein	175±20 pmoles lysosphingolipid/mg plasma membrane protein	50					
CCCCCCCCCCCCC/C=C/[C@@H](O)[C@@H](N)CO [sphingosine]					potently modulated InsP3 signalling				105±5 pmoles lysosphingolipid/mg plasma membrane protein	113±15 pmoles lysosphingolipid/mg plasma membrane protein	140±15 pmoles lysosphingolipid/mg plasma membrane protein	165±20 pmoles lysosphingolipid/mg plasma membrane protein	175±25 pmoles lysosphingolipid/mg plasma membrane protein		tonically upregulated	tonically enhanced	no effect	a decrease	approximately 2 fold
